Reference: patent US7138361B2, “Herbicidal heterocycles” (E. I. du Pont de Nemours and Company, priority 2000, dated 2006)

Experiments:
Assay type in all cases: in vivo
[1] = tested on: pigweed (Amaranthus retroflexus); assay: Test B postemergence; settings: Rate 500 g/ha, scale 0 to 100, 0 is no effect, 100 is complete control, 13 to 15 days
Text: (§1) Seeds selected from barnyardgrass (Echinochloa crus-galli), Surinam grass (Brachiaria decumbens), cocklebur (Xanthium strumarium), corn (Zea mays), crabgrass (Digitaria sanguinalis), giant foxtail (Setaria faberii), lambsquarters (Chenopodium album), morning glory (Ipomoea hederacea), pigweed (Amaranthus retroflexus), rice (Oryza saliva) and velvetleaf (Abutilon theophrasti) were planted and treated preemergence with test chemicals formulated in a non-phytotoxic solvent mixture which included a surfactant.
(§2) At the same time, plants selected from these crop and weed species and also blackgrass (Alopecurus myosuroides), wheat (Triticum aestivum) and wild oat (Avena fatua) were treated with postemergence applications of test chemicals formulated in the same manner. Plants ranged in height from 2 to 18 cm (1- to 4-leaf stage) for postemergence treatments. Plant species in the flooded paddy test consisted of rice (Oryza saliva), smallflower flatsedge (Cyperus difformis), duck salad (Heteranthera limosa) and barnyardgrass (Echinochloa crus-galli) grown to the 2-leaf stage for testing. Treated plants and controls were maintained in a greenhouse for 13 to 15 days, after which time all species were compared to controls and visually evaluated. Plant response ratings, summarized in Table B, are based on a scale of 0 to 100 where 0 is no effect and 100 is complete control. A dash (-) response means no test result.

[2] = tested on: velvetleaf (Abutilon theophrasti); assay: Test B postemergence; settings: Rate 500 g/ha, scale 0 to 100, 0 is no effect, 100 is complete control, 13 to 15 days
Text: as §1, §2

wild oat (Avena fatua) = assay: Test B postemergence; settings: Rate 500 g/ha, scale 0 to 100, 0 is no effect, 100 is complete control, 13 to 15 days
Text: as §1, §2

[3] = tested on: lambsquarters (Chenopodium album); assay: Test B postemergence; settings: Rate 500 g/ha, scale 0 to 100, 0 is no effect, 100 is complete control, 13 to 15 days
Text: as §1, §2

[4] = tested on: morning glory (Ipomoea hederacea); assay: Test B postemergence; settings: Rate 500 g/ha, scale 0 to 100, 0 is no effect, 100 is complete control, 13 to 15 days
Text: as §1, §2

[5] = tested on: blackgrass (Alopecurus myosuroides); assay: Test B postemergence; settings: 13 to 15 days
Text: as §1, §2

[6] = tested on: Surinam grass (Brachiaria decumbens); assay: Test B postemergence; settings: 13 to 15 days
Text: as §1, §2

[7] = tested on: wheat (Triticum aestivum); assay: Test B postemergence; settings: Rate 500 g/ha, scale 0 to 100, 0 is no effect, 100 is complete control, 13 to 15 days
Text: as §1, §2

[8] = tested on: giant foxtail (Setaria faberii); assay: Test B postemergence; settings: 13 to 15 days
Text: as §1, §2

corn (Zea mays) [9] = assay: Test B postemergence; settings: 13 to 15 days
Text: as §1, §2

[10] = tested on: crabgrass (Digitaria sanguinalis); assay: Test B postemergence; settings: 13 to 15 days
Text: as §1, §2

[11] = tested on: barnyardgrass (Echinochloa crus-galli); assay: Test B postemergence; settings: 13 to 15 days
Text: as §1, §2

[12] = tested on: pigweed (Amaranthus retroflexus); assay: Test B preemergence
Text: as §1, §2

[13] = tested on: velvetleaf (Abutilon theophrasti); assay: Test B preemergence
Text: as §1, §2

[14] = tested on: lambsquarters (Chenopodium album); assay: Test B preemergence
Text: as §1, §2

[15] = tested on: morning glory (Ipomoea hederacea); assay: Test B preemergence
Text: as §1, §2

[16] = tested on: Surinam grass (Brachiaria decumbens); assay: Test B preemergence
Text: as §1, §2

rice (Oryza saliva) [17] = assay: Test B preemergence
Text: as §1, §2

[18] = tested on: cocklebur (Xanthium strumarium); assay: Test B preemergence
Text: as §1, §2

[19] = tested on: giant foxtail (Setaria faberii); assay: Test B preemergence
Text: as §1, §2

corn (Zea mays) [20] = assay: Test B preemergence
Text: as §1, §2

[21] = tested on: crabgrass (Digitaria sanguinalis); assay: Test B preemergence
Text: as §1, §2

[22] = tested on: barnyardgrass (Echinochloa crus-galli); assay: Test B preemergence
Text: as §1, §2

[23] = tested on: duck salad (Heteranthera limosa); assay: Test C flooded paddy test; settings: for Ducksalad plant response rating: Flooded Paddy, scale 0 to 100, 0 no effect, 100 complete control; for Plant response rating, Ducksalad: flooded paddy test, scale 0 to 100 (0 no effect, 100 complete control)
Procedure: (§3) At the same time, plants selected from these crop and weed species and also winter barley (Hordeum vulgare), blackgrass (Alopecurus myosuroides), canary grass (Phalaris minor), chickweed (Stellaria media), downy brome (Bromus tectorum), green foxtail (Setaria viridis), Italian ryegrass (Lolium multiflorum), wheat (Triticum aestivum), wild oat (Avena fatua) and windgrass (Apera spica-venti) were treated with postemergence applications of some of the test chemicals formulated in the same manner. Plants ranged in height from 2 to 18 cm (1- to 4-leaf stage) for postemergence treatments. Plant species in the flooded paddy test consisted of rice (Oryza saliva), smallflower flatsedge (Cyperus difformis), duck salad (Heteranthera limosa) and barnyardgrass (Echinochloa crus-galli) grown to the 2-leaf stage for testing. Treated plants and controls were maintained in a greenhouse for 12 to 14 days, after which time all species were compared to controls and visually evaluated. Plant response ratings, summarized in Table C, are based on a scale of 0 to 100 where 0 is no effect and 100 is complete control. A dash (-) response means no test result.

[24] = tested on: smallflower flatsedge (Cyperus difformis); assay: Test C flooded paddy test; settings: for Flatsedge plant response rating: Flooded Paddy, scale 0 to 100, 0 no effect, 100 complete control; for Plant response rating, Flatsedge: flooded paddy test, scale 0 to 100 (0 no effect, 100 complete control)
Procedure: as §3

rice (Oryza saliva) [25] = assay: Test C flooded paddy test; settings: for Rice plant response rating: Flooded Paddy, scale 0 to 100, 0 no effect, 100 complete control; for Plant response rating, Rice: flooded paddy test, scale 0 to 100 (0 no effect, 100 complete control)
Procedure: as §3

[26] = tested on: barnyardgrass (Echinochloa crus-galli); assay: Test C flooded paddy test; settings: for Barnyardgrass plant response rating: Flooded Paddy, scale 0 to 100, 0 no effect, 100 complete control; for Plant response rating, Barnyardgrass: flooded paddy test, scale 0 to 100 (0 no effect, 100 complete control)
Procedure: as §3

[27] = Rate 125 g/ha, scale 0 (no effect) to 100 (complete control)
[28] = Rate 500 g/ha, scale 0 to 100, 0 is no effect, 100 is complete control
[29] = Preemergence, Rate 500 g/ha, scale 0 to 100, 0 no effect, 100 complete control
[30] = preemergence, Rate 125 g/ha, scale of 0 to 100 where 0 is no effect and 100 is complete control, 13 to 15 days

CC(C)(C)c1ccn(C2CCN(c3cccc(S(C)(=O)=O)c3)C2=O)n1 (stereo not drawn) [Compound 102]
90: Plant response rating, Crabgrass [21, 29]
30: Flatsedge plant response rating ([24]; Rate 250 g/ha) | Plant response rating, Flatsedge ([24]; Rate 125 g/ha)
0: Plant response rating, Pigweed [1] | Plant response rating, Velvetleaf [2] | Plant response rating, Wild Oat (wild oat (Avena fatua)) | Plant response rating, Lambsquarters [3] | Plant response rating, Morningglory [4] | Plant response rating, Blackgrass [5, 27] | Plant response rating, Blackgrass [5, 28] | Plant response rating, Surinam grass [6, 27] | Plant response rating, Surinam grass [6, 28] | Plant response rating, Wheat [7] | Plant response rating, Foxtail, Giant [8, 27] | Plant response rating, Foxtail, Giant [8, 28] | Plant response rating, Corn (corn (Zea mays) [9]; [27]) | Plant response rating, Corn (corn (Zea mays) [9]; [28]) | Plant response rating, Crabgrass [10, 27] | Plant response rating, Crabgrass [10, 28] | Plant response rating, Barnyardgrass [11, 27] | Plant response rating, Barnyardgrass [11, 28] | Plant response rating, Pigweed [12, 29] | Plant response rating, Pigweed [12, 30] | Plant response rating, Velvetleaf [13, 29] | Plant response rating, Velvetleaf [13, 30] | Plant response rating, Lambsquarters [14, 29] | Plant response rating, Lambsquarters [14, 30] | Plant response rating, Morningglory [15, 29] | Plant response rating, Morningglory [15, 30] | Plant response rating, Surinam grass [16, 29] | Plant response rating, Surinam grass [16, 30] | Plant response rating, Rice (rice (Oryza saliva) [17]; [29]) | Plant response rating, Rice (rice (Oryza saliva) [17]; [30]) | Plant response rating, Cocklebur [18, 29] | Plant response rating, Cocklebur [18, 30] | Plant response rating, Foxtail, Giant [19, 29] | Plant response rating, Foxtail, Giant [19, 30] | Plant response rating, Corn (corn (Zea mays) [20]; [29]) | Plant response rating, Corn (corn (Zea mays) [20]; [30]) | Plant response rating, Crabgrass [21, 30] | Plant response rating, Barnyardgrass [22, 29] | Plant response rating, Barnyardgrass [22, 30] | Ducksalad plant response rating ([23]; Rate 250 g/ha) | Ducksalad plant response rating ([23]; Rate 500 g/ha) | Plant response rating, Ducksalad ([23]; Rate 62 g/ha) | Plant response rating, Ducksalad ([23]; Rate 125 g/ha) | Plant response rating, Flatsedge ([24]; Rate 62 g/ha) | Rice plant response rating (rice (Oryza saliva) [25]; Rate 250 g/ha) | Rice plant response rating (rice (Oryza saliva) [25]; Rate 500 g/ha) | Plant response rating, Rice (rice (Oryza saliva) [25]; Rate 62 g/ha) | Plant response rating, Rice (rice (Oryza saliva) [25]; Rate 125 g/ha) | Barnyardgrass plant response rating ([26]; Rate 250 g/ha) | Barnyardgrass plant response rating ([26]; Rate 500 g/ha) | Plant response rating, Barnyardgrass ([26]; Rate 62 g/ha) | Plant response rating, Barnyardgrass ([26]; Rate 125 g/ha)
60: Flatsedge plant response rating ([24]; Rate 500 g/ha)

CCCCC(C)c1ccn(C2SCN(c3cccc(C(F)(F)F)c3)C2=O)n1 (stereo not drawn) [Compound 103]
40: Barnyardgrass plant response rating ([26]; Rate 500 g/ha)
20: Rice plant response rating (rice (Oryza saliva) [25]; Rate 250 g/ha) | Rice plant response rating (rice (Oryza saliva) [25]; Rate 500 g/ha) | Barnyardgrass plant response rating ([26]; Rate 250 g/ha)
80: Plant response rating, Flatsedge ([24]; Rate 125 g/ha)
60: Plant response rating, Crabgrass [21, 29]
0: Plant response rating, Pigweed [1] | Plant response rating, Velvetleaf [2] | Plant response rating, Wild Oat (wild oat (Avena fatua)) | Plant response rating, Morningglory [4] | Plant response rating, Blackgrass [5, 27] | Plant response rating, Blackgrass [5, 28] | Plant response rating, Surinam grass [6, 27] | Plant response rating, Surinam grass [6, 28] | Plant response rating, Wheat [7] | Plant response rating, Foxtail, Giant [8, 27] | Plant response rating, Foxtail, Giant [8, 28] | Plant response rating, Corn (corn (Zea mays) [9]; [27]) | Plant response rating, Corn (corn (Zea mays) [9]; [28]) | Plant response rating, Crabgrass [10, 27] | Plant response rating, Crabgrass [10, 28] | Plant response rating, Barnyardgrass [11, 27] | Plant response rating, Barnyardgrass [11, 28] | Plant response rating, Pigweed [12, 29] | Plant response rating, Pigweed [12, 30] | Plant response rating, Velvetleaf [13, 29] | Plant response rating, Velvetleaf [13, 30] | Plant response rating, Morningglory [15, 29] | Plant response rating, Morningglory [15, 30] | Plant response rating, Surinam grass [16, 29] | Plant response rating, Surinam grass [16, 30] | Plant response rating, Rice (rice (Oryza saliva) [17]; [29]) | Plant response rating, Rice (rice (Oryza saliva) [17]; [30]) | Plant response rating, Cocklebur [18, 29] | Plant response rating, Cocklebur [18, 30] | Plant response rating, Foxtail, Giant [19, 29] | Plant response rating, Foxtail, Giant [19, 30] | Plant response rating, Corn (corn (Zea mays) [20]; [29]) | Plant response rating, Corn (corn (Zea mays) [20]; [30]) | Plant response rating, Crabgrass [21, 30] | Plant response rating, Barnyardgrass [22, 29] | Plant response rating, Barnyardgrass [22, 30] | Ducksalad plant response rating ([23]; Rate 250 g/ha) | Plant response rating, Ducksalad ([23]; Rate 62 g/ha) | Plant response rating, Ducksalad ([23]; Rate 125 g/ha) | Plant response rating, Flatsedge ([24]; Rate 62 g/ha) | Plant response rating, Rice (rice (Oryza saliva) [25]; Rate 62 g/ha) | Plant response rating, Barnyardgrass ([26]; Rate 62 g/ha) | Plant response rating, Barnyardgrass ([26]; Rate 125 g/ha)
90: Ducksalad plant response rating ([23]; Rate 500 g/ha)
100: Plant response rating, Lambsquarters [14, 29] | Plant response rating, Lambsquarters [14, 30] | Flatsedge plant response rating ([24]; Rate 250 g/ha) | Flatsedge plant response rating ([24]; Rate 500 g/ha)
50: Plant response rating, Lambsquarters [3]
